Laboratory results taken from patent publication US20240109912A1, “TRICYCLIC PYRIMIDINES AS CYCLIN-DEPENDENT KINASE 7 (CDK7) INHIBITORS” (JANSSEN PHARMACEUTICA NV, priority 2020, published 2024).
Values joined by “and” are separate entries in the source; they are usually repeats but may differ in a detail not shown here. Equal values may be shown once. Read-outs that look alike come from different tables or passages of the source.

Key:
[1] = tested on: RNA polymerase II Serine 5 phosphorylation (CDK7) in A549 cells
[2] = tested on: RNA polymerase II Serine 5 phosphorylation in A549 cells overexpressing CDK7 mutant (C312S); assay: Imaging-based cellular RNA PolII Ser5 phosphorylation assay in A549 cells overexpressing CDK7-mutant (C312S); type: cell-based, human; settings: for IC50: Homo sapiens, A549, A549 cells overexpressing CDK7 mutant (C312S), read-out: CDK7_ A549 mutant hCDK7(pIC50) (converted); for CDK7_ A549 mutant hCDK7(pIC50): A549 cells overexpressing CDK7 mutant (C312S)
Summary of the method: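 A stably transduced A549 pool overexpressing CDK7 C312S, a mutant that blocks covalent binding at Cys312, while retaining endogenous wild-type CDK7 was used. Ser5 phosphorylation was measured by imaging, and IC50 values were derived.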

[3] = target: CDK7/cyclinH/MAT1 trimeric complex (Homo sapiens (Human), UniProt P50613); assay: In vitro CDK7 assay, potency of irreversible covalent inhibitors (kinact/KI)
CDK7/cyclinH/MAT1 trimeric complex, sequence (P50613 whole entry): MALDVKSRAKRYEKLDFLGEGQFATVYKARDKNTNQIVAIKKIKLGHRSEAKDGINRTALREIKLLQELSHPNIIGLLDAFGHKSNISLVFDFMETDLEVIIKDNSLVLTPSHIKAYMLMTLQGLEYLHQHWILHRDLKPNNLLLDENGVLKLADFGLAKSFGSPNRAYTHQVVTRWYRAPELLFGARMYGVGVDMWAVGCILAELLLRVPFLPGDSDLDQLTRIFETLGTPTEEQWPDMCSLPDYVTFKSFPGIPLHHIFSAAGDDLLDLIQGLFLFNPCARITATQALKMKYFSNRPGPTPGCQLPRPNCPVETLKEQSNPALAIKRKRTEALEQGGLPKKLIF
CDK7/cyclinH/MAT1 trimeric complex, sequence (P51946 whole entry partner): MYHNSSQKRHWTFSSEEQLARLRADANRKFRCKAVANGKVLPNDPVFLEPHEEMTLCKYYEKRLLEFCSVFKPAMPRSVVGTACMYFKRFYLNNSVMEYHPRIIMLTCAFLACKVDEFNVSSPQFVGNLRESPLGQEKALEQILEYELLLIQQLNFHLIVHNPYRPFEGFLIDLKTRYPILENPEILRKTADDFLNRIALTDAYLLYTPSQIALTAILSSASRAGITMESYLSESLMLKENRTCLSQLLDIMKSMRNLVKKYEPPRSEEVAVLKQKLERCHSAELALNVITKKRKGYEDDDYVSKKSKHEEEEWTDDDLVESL
CDK7/cyclinH/MAT1 trimeric complex, sequence (P51948 whole entry partner): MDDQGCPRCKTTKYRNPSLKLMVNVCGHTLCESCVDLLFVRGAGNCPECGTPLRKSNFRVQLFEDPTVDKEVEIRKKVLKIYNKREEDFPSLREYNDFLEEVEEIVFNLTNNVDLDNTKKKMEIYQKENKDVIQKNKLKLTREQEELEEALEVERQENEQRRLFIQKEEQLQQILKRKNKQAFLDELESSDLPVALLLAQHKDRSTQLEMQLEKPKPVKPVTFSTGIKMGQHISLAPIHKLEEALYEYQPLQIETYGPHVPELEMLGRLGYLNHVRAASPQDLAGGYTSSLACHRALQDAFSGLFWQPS

[4] = CDK7 (20 nM enz.) (KI, μM), 20 nM enz.
[5] = read-out: CDK7 (20 nM enz.) (kinact, s^−1), 20 nM enz.
[6] = read-out: CDK7 (20 nM enz.) (kinact/ KI, M^−1*s^−1), 20 nM enz.
[7] = read-out: CDK7 (20 nM enz.) (kobs/[I], M^−1*s^−1), 20 nM enz.
[8] = read-out: CDK7 (kinact, s^−1), Table B
[9] = read-out: CDK7 (kinact/KI, M^−1*s^−1), Table B

SMILES	IC50 [1]	melting point [°C]	IC50 [2] [nM]	Ki [3, 4]	kinact [3, 5] [s⁻¹]	kinact/KI [3, 6] [M⁻¹ s⁻¹]	CDK7_ A549 mutant hCDK7(pIC50) [2]	CDK7 (20 nM enz.) (kinact, s^−1) ([3]; 20 nM enz.)	CDK7 (20 nM enz.) (kinact/ KI, M^−1*s^−1) ([3]; 20 nM enz.)	kinact/KI [3, 7] [M⁻¹ s⁻¹]	Ki ([3]; CDK7 (KI(μM)), Table B)	CDK7 (kinact, s^−1) ([3]; Table B) [s⁻¹]	CDK7 (kinact/KI, M^−1*s^−1) ([3]; Table B) [M⁻¹ s⁻¹]	kinact [3, 8] [s⁻¹]	kinact/KI [3, 9] [M⁻¹ s⁻¹]
CC#CC(=O)N1CCC(N2CCN(c3cc(C)c4c(c3)Nc3ncnc(N5CCS(=O)(=O)CC5)c3CO4)CC2)CC1 [compound 136]	257 nM	240	> 10000	0.0874 µM	5.36e-05	613	–	–	–	–	–	–	–	–	–
C=CC(=O)N1CCC(N2CC(c3cc4c(c(C(F)(F)F)c3)OCc3c(ncnc3-c3cnn(C)c3)N4)C2)CC1 [compound 44]	1170 nM	178	> 10000	0.67 µM	4.31e-05	64.4	–	–	–	–	–	–	–	–	–
C=CC(=O)N1CCC(N2CCC(c3cc4c(c(C)n3)OCc3c(ncnc3N3CCS(=O)(=O)CC3)N4)CC2)CC1 [compound 59]	151 nM	259	> 10000	0.0715 µM	5.06e-05	708	–	–	–	–	–	–	–	–	–
C=CC(=O)N1CC[C@H](N2CC(c3cc4c(c(C5CC5)c3)O[C@H](C)c3c(ncnc3N3CCS(=O)(=O)CC3)N4)C2)C1 (single isomer, unassigned) [compound 95]	~955 nM	193	> 10000	0.0708 µM	2.35e-05	332	–	–	–	–	–	–	–	–	–
C=CC(=O)N1CC(N2CCC(c3ccc4c(c3)Nc3ncnc(N5CCOCC5)c3C(CC)O4)CC2)C1 (stereo not drawn) [compound 66]	933 nM	118	> 10000	0.528 µM	4.52e-05	85.5	–	–	–	–	–	–	–	–	–
C=CC(=O)N1CC(N2CCC(c3cc4c(c(C)n3)OCc3c(ncnc3N3CCS(=O)(=O)CC3)N4)CC2)C1 [compound 58]	288 nM	257	> 10000	0.0451 µM	5.57e-05	1240	–	–	–	–	–	–	–	–	–
C=CC(=O)N1CCC(N2CC(c3cc(C)c4c(c3)Nc3ncnc(N5CCS(=O)(=O)CC5)c3CO4)C2)CC1 [compound 87]	81.3 nM	200	7760	0.234 µM	4.3e-05	184	–	–	–	–	–	–	–	–	–
C=CC(=O)N1CCC(N2CCC(c3cc(C)c4c(c3)Nc3ncnc(N5CCS(=O)(=O)CC5)c3CO4)CC2)CC1 [compound 88]	34.7 nM	256	8130	0.0485 µM	4.48e-05	923	–	–	–	–	–	–	–	–	–
C=CC(=O)N1CCC(N2CC(c3cc4c(c(C5CC5)c3)O[C@@H](C)c3c(ncnc3N3CCS(=O)(=O)CC3)N4)C2)C1 (mixture of isomers) [compound 97]	234 nM	220	> 10000	0.0068 µM	2.76e-05	4030	–	–	–	–	–	–	–	–	–
C=CC(=O)N1CCC(N2CC(c3cc(C)c4c(c3)Nc3ncnc(N5CCOCC5)c3CO4)C2)C1 (stereo not drawn) [compound 16]	457 nM	151	> 10000	0.192 µM	5.05e-05	263	–	–	–	–	–	–	–	–	–
C=CC(=O)N1CC(N2CCC(c3cc(F)c4c(c3)Nc3ncnc(-c5cnn(C)c5)c3[C@@H](C)O4)CC2)C1 (single isomer, unassigned) [compound 52]	123 nM	245	> 10000	0.0825 µM	5.9e-05	714	–	–	–	–	–	–	–	–	–
C=CC(=O)N1CCC(N2CC(c3cc(C)c4c(c3)Nc3ncnc(N5CCOCC5)c3CO4)C2)CC1 [compound 14]	468 nM	191	> 10000	0.183 µM	3.46e-05	189	–	–	–	–	–	–	–	–	–
C=CC(=O)N1CC[C@@H](N2CCC(c3cc(C)c4c(c3)Nc3ncnc(N5CCS(=O)(=O)CC5)c3CO4)CC2)C1 (single isomer, unassigned) [compound 114]	51.3 nM and 28.2 nM	251	~10000	0.0288 µM and 0.0678 µM	4.67e-05	1620	<5	8.94e-05 s⁻¹	1318 M⁻¹ s⁻¹	–	–	–	–	–	–
C=CC(=O)N1CC(N2CCC(c3cc(Cl)c4c(c3)Nc3ncnc(N5CCS(=O)(=O)CC5)c3CO4)CC2)C1 [compound 43]	132 nM	296	> 10000	–	–	–	–	–	–	1490	–	–	–	–	–
C=CC(=O)N1CC(N2CCC(c3cc(C)c4c(c3)Nc3ncnc(N5CC(CO)C5)c3CO4)CC2)C1 [compound 107]	3890 nM	180	> 10000	0.96 µM	5.21e-05	54.3	–	–	–	–	–	–	–	–	–
C=CC(=O)N1CC(N2CCC(c3ccc4c(c3)Nc3ncnc(N5CCOCC5)c3[C@H](CC)O4)CC2)C1 (single isomer, unassigned) [compound 75]	646 nM	123	> 10000	0.265 µM	3.84e-05	145	–	–	–	–	–	–	–	–	–
C=CC(=O)N1CC(N2CC[C@H](c3ccc4c(c3)Nc3ncnc(N5CCOCC5)c3CO4)[C@H](C)C2)C1 (single isomer, unassigned) [compound 37]	912 nM and 676 nM	217	> 10000	–	–	–	–	–	–	–	0.164 µM and 0.152 µM	7.29e-05	478.485	0.000137	832
C=CC(=O)N1CCC(N2CC(c3cc4c(c(C)n3)OCc3c(ncnc3N3CCS(=O)(=O)CC3)N4)C2)CC1 [compound 63]	1700 nM	190	> 10000	0.174 µM	3.22e-05	186	–	–	–	–	–	–	–	–	–
C=CC(=O)N1CC(N2CCN(c3cc4c(cn3)OCc3c(ncnc3N3CCOCC3)N4)CC2)C1 [compound 71]	1350 nM	256	> 10000	3.2 µM	7.12e-05	22.2	–	–	–	–	–	–	–	–	–
C=CC(=O)N1CC(N2CC[C@@H](c3ccc4c(c3)Nc3ncnc(N5CCOCC5)c3CO4)[C@@H](C)C2)C1 [compound 36]	741 nM and 479 nM	232	> 10000	–	–	–	–	–	–	–	0.0803 µM and 0.233 µM	0.0001256	539.8	8.19e-05	1020
CC#CC(=O)N1CC(N2CCC(c3cc(C)c4c(c3)Nc3ncnc(N5CCS(=O)(=O)CC5)c3CO4)CC2)C1 [compound 151]	115 nM	189	> 10000	0.16 µM	5.91e-05	370	–	–	–	–	–	–	–	–	–
C=CC(=O)N1CCC(N2CC(c3cc4c(c(C(F)(F)F)c3)OCc3c(ncnc3N3CCOCC3)N4)C2)CC1 [compound 45]	427 nM	158	> 10000	0.219 µM	4.44e-05	203	–	–	–	–	–	–	–	–	–
C=CC(=O)N1CC(N2CC(c3cc4c(c(C)n3)OCc3c(ncnc3N3CCS(=O)(=O)CC3)N4)C2)C1 [compound 64]	7240 nM	> 300	> 10000	0.427 µM	4.81e-05	113	–	–	–	–	–	–	–	–	–
C=CC(=O)N1CC[C@@H](N2CC(c3cc(C)c4c(c3)Nc3ncnc(N5CCS(=O)(=O)CC5)c3[C@@H](C)O4)C2)C1 (single isomer, unassigned) [compound 122]	81.3 nM and 79.4 nM and 61.7 nM	237	–	0.0292 µM	–	–	<5	4.85e-05 s⁻¹	1658.55 M⁻¹ s⁻¹ and 891.412 M⁻¹ s⁻¹	–	–	–	–	–	–
C=CC(=O)N1CC(N2CCC(c3ccc4c(c3)Nc3ncnc(C5=CCOCC5)c3CO4)CC2)C1 [compound 39]	2240 nM	243	> 10000	0.61 µM	5.09e-05	83.4	–	–	–	–	–	–	–	–	–
C=CC(=O)N1CC(N2CCC(c3cc(C)c4c(c3)Nc3ncnc(N5CCS(=O)(=O)CC5)c3[C@H](C)O4)CC2)C1 [compound 32]	~12.6 nM	> 300	> 10000	0.0249 µM	4.14e-05	1660	–	–	–	1280	–	–	–	–	–
C=CC(=O)N1CCC(N2CCC(c3ccc4c(c3)Nc3ncnc(N5CCOCC5)c3CO4)CC2)CC1 [compound 2]	331 nM and 324 nM	211	> 10000	0.754 µM	6.34e-05	98.7	–	–	–	–	0.365 µM	–	–	0.000198	543
C=CC(=O)N1CC(N2CCC(c3cc4c(cn3)O[C@H](C)c3c(ncnc3N3CCOCC3)N4)CC2)C1 (single isomer, unassigned) [compound 60]	257 nM	250	–	0.283 µM	–	–	<5	5.21e-05 s⁻¹	184.255 M⁻¹ s⁻¹	–	–	–	–	–	–
C=CC(=O)N1CC(N2C3CCC2CC(c2ccc4c(c2)Nc2ncnc(N5CCOCC5)c2CO4)C3)C1 (stereo not drawn) [compound 41]	1200 nM and 1320 nM	208	–	0.991 µM and 0.898 µM	–	–	<5	5.55e-05 s⁻¹ and 5.25e-05 s⁻¹	56 M⁻¹ s⁻¹ and 58.5 M⁻¹ s⁻¹	–	–	–	–	–	–
